Test results as given in US20230348362A1, “LIPID COMPOUNDS AND LIPID NANOPARTICLE COMPOSITIONS” (Suzhou Abogen Biosciences Co., Ltd., priority 2021, published 2023).

Experiments:
Assay type in all cases: physicochemical
[1] = Lipid nanoparticle size and polydispersity by dynamic light scattering; details: LNP of lipid/DSPC/cholesterol/PEG-lipid 50:10:38.5:1.5 encapsulating hEPO mRNA
Outline: (§1)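 LNPs made from ionizable lipid/DSPC/cholesterol/PEG-lipid (50:10:38.5:1.5) and mRNA in citrate pH 4 by microfluidic mixing, lipid:mRNA about 10:1–30:1 w/w, then dialysed into DPBS and filtered. Size and PDI measured by DLS in backscatter mode; encapsulation efficiency measured by RiboGreen assay.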

[2] = Encapsulation efficiency of lipid nanoparticles, Quant-it Ribogreen RNA assay; details: LNP of lipid/DSPC/cholesterol/PEG-lipid 50:10:38.5:1.5 encapsulating hEPO mRNA
Outline: as §1

[3] = Apparent pKa of LNP formulations, TNS fluorescence assay; details: LNP cationic lipid/DSPC/cholesterol/DMG-PEG 50/10/38.5/1.5 mol %
Description: As reported in literature, the apparent pKa of LNP formulations correlates with the delivery efficiency of LNPs for nucleic acids in vivo. The apparent pKa of each formulation was determined using an assay based on fluorescence of 2-(p-toluidino)-6-napthalene sulfonic acid (TNS). LNP formulations comprising of cationic lipid/DSPC/cholesterol/DMG-PEG (50/10/38.5/1.5 mol %) in PBS were prepared as described above. TNS was prepared as a 300 μM stock solution in distilled water. LNP formulations were diluted to 0.1 mg/mL total lipid in 3 mL of buffered solutions containing 50 mM sodium citrate, 50 mM sodium phosphate, 50 mM sodium borate, and 30 mM sodium chloride where the pH ranged from 3 to 9. An aliquot of the TNS solution was added to give a final concentration of […] and following vortex mixing fluorescence intensity was measured at room temperature in a Molecular Devices Spectramax iD3 spectrometer using excitation and mission wavelengths of 325 nm and 435 nm. A sigmoidal best fit analysis was applied to the fluorescence data and the pKa value was measured as the pH giving rise to half-maximal fluorescent intensity.

SMILES: CCCCCCCCCCCOC(=O)CCCCCN(CCN(CCCCCC(=O)OCC(CCCCCCCC)CCCCCCCC)CCNc1c(NC)c(=O)c1=O)C1CCC1 [Compound 82]
- polydispersity [1]: 0.066
- size (nm) [1]: 67.32 nm
- Encapsulation Efficiency [2]: 91.54%
- Apparent Pka [3]: 6.599

SMILES: CCCCCCCCC(CCCCCCCC)COC(=O)CCCCCN(CCO)CCN(CCCCCOC(=O)CCCCCC(CCCCCC)CCCCCC)C1CCC1 [Compound 83]
- polydispersity [1]: 0.032
- size (nm) [1]: 87.87 nm
- Encapsulation Efficiency [2]: 92.51%
- Apparent Pka [3]: 6.233

SMILES: CCCCCCCCC(CCCCCCCC)COC(=O)CCCCCN(CCO)CCN(CCCCCCOC(=O)C(CCCCCCCC)CCCCCCCC)C1CCC1 [Compound 84]
- polydispersity [1]: 0.097
- size (nm) [1]: 59.91 nm
- Encapsulation Efficiency [2]: 91.88%
- Apparent Pka [3]: 6.117

SMILES: CCCCCCCCC(CCCCCCCC)COC(=O)CCCCCN(CCNc1c(N(C)C)c(=O)c1=O)CCN(CCCCCC(=O)OCC(CCCCCCCC)CCCCCCCC)C1CCC1 [Compound 85]
- polydispersity [1]: 0.096
- size (nm) [1]: 67.44 nm
- Encapsulation Efficiency [2]: 93.27%
- Apparent Pka [3]: 6.126

SMILES: CCCCCCCCC(CCCCCCCC)COC(=O)CCCCCN(CCO)CCCCN(CCCCCC(=O)OCC(CCCCCCCC)CCCCCCCC)C1CCC1 [Compound 86]
- polydispersity [1]: 0.043
- size (nm) [1]: 86.61 nm
- Encapsulation Efficiency [2]: 95.02%
- Apparent Pka [3]: 6.814

SMILES: CCCCCCCCC(CCCCCCCC)COC(=O)CCCCCN(CCO)CCN(CCCCCOC(=O)CCCCC=C(CCCCCC)CCCCCC)C1CCC1 [Compound 87]
- polydispersity [1]: 0.055
- size (nm) [1]: 70.07 nm
- Encapsulation Efficiency [2]: 93.34%
- Apparent Pka [3]: 6.476

SMILES: CCCCCCCCCCCCCCN(CCCCCCCCCCCCCC)C(=O)CCCCCN(CCO)CCN(CCCCCC(=O)OCCCCCCCCCCC)C1CCCCC1 [Compound 89]
- polydispersity [1]: 0.086
- size (nm) [1]: 81.46 nm
- Encapsulation Efficiency [2]: 89.05%
- Apparent Pka [3]: 6.745

SMILES: CCCCCCCCCCCC(=O)OCCCCCN(CCN(CCO)CCCCCOC(=O)CC(CCCCCCCC)CCCCCCCC)C1CC1 [Compound 91]
- polydispersity [1]: 0.115
- size (nm) [1]: 64.49 nm
- Encapsulation Efficiency [2]: 87.92%
- Apparent Pka [3]: 6.042

SMILES: CCCCCCCCCCCC(=O)OCCCCCN(CCN(CCO)CCCCCOC(=O)CC(CCCCCCCC)CCCCCCCC)C1CCC1 [Compound 92]
- polydispersity [1]: 0.014
- size (nm) [1]: 80.12 nm
- Encapsulation Efficiency [2]: 91.34%
- Apparent Pka [3]: 6.582

SMILES: CCCCCCCCCCCC(=O)OCCCCCN(CCN(CCO)CCCCCOC(=O)CC(CCCCCCCC)CCCCCCCC)C1CCCCCC1 [Compound 94]
- polydispersity [1]: 0.061
- size (nm) [1]: 58.34 nm
- Encapsulation Efficiency [2]: 90.26%
- Apparent Pka [3]: 6.448

SMILES: CCCCCCCCCCCC(=O)OCCCCCN(CCN(CCO)CCCCCOC(=O)CC(CCCCCCCC)CCCCCCCC)C1CCCCCCC1 [Compound 95]
- polydispersity [1]: 0.103
- size (nm) [1]: 55.48 nm
- Encapsulation Efficiency [2]: 92.04%
- Apparent Pka [3]: 6.271

SMILES: CCCCCCCCC(CCCCCCCC)CNC(=O)CCCCCN(CCNc1c(NC)c(=O)c1=O)CCN(C)CCCCCC(=O)OCC(CCCCCCCC)CCCCCCCC [Compound 96]
- polydispersity [1]: 0.087
- size (nm) [1]: 57.20 nm
- Encapsulation Efficiency [2]: 97.00%
- Apparent Pka [3]: 7.287

SMILES: CCCCCCCCCCCC(=O)OCCCCCN(CCN(CCO)CCOCCOC(=O)CC(CCCCCCCC)CCCCCCCC)C1CCC1 [Compound 97]
- polydispersity [1]: 0.045
- size (nm) [1]: 76.13 nm
- Encapsulation Efficiency [2]: 88.12%
- Apparent Pka [3]: 6.912

SMILES: CCCCCCCCC(CCCCCCCC)COC(=O)CCCCCN(CCO)CCN(CCCCCC(=O)OCCCCCC)C1CCCCC1 [Compound 101]
- polydispersity [1]: 0.078
- size (nm) [1]: 98.67 nm
- Encapsulation Efficiency [2]: 87.20%
- Apparent Pka [3]: 6.423

SMILES: CCCCCCCCCOC(=O)CCCCCN(CCN(CCO)CCCCCC(=O)OCC(CCCCCCCC)CCCCCCCC)C1CCCCC1 [Compound 102]
- polydispersity [1]: 0.082
- size (nm) [1]: 77.17 nm
- Encapsulation Efficiency [2]: 90.14%
- Apparent Pka [3]: 6.407

SMILES: CCCCCCCCCCCCCCCCCCOC(=O)CCCCCN(CCN(CCO)CCCCCC(=O)OCC(CCCCCCCC)CCCCCCCC)C1CCCCC1 [Compound 105]
- polydispersity [1]: 0.051
- size (nm) [1]: 69.11 nm
- Encapsulation Efficiency [2]: 93.35%
- Apparent Pka [3]: 6.328
